The compounds below were run against T1, PD-1/PD-L1 interaction (PD-1-Ig / PD-L1-His) (Homo sapiens, UniProt Q9NZQ7) (assay: PD-1/PD-L1 Homogenous Time-Resolved Fluorescence (HTRF) binding assay). Conditions: IC50 range class; PD-L1-His 10 nM, PD-1-Ig 20 nM; read-out: Range or IC50.
T1 construct: hPDL1(18-239)-TVMV-His; TVMV protease site linker (C); made in house; host or cells: HEK293T
In short: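 Human PD-L1-His (10 nM final) was pre-incubated with inhibitor for 15 min, then PD-1-Ig (20 nM final) was added for a further 15 min in dPBS with 0.1% BSA and 0.05% Tween-20. Binding was detected by HTRF using Eu-cryptate anti-Ig (1 nM) and APC anti-His (20 nM).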

T1 sequence (Q9NZQ7 with tags, fused parts or gaps): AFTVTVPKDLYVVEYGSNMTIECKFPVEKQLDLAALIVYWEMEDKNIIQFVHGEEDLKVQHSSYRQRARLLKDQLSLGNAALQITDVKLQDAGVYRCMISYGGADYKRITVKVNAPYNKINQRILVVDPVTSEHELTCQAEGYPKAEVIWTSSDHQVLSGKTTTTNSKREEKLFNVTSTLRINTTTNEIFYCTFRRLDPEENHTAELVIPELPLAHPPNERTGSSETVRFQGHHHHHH

| Structure (SMILES) | IC50 |
| --- | --- |
| Cc1ccccc1-c1ccc(OCCCN2CC[C@H](O)C2)c(OCCCN2CC[C@H](O)C2)c1 [Example 3021, (3S,3′S)-1,1′-(((2′-methyl-[1,1′-biphenyl]-3,4-diyl)bis(oxy))bis(propane-3,1-diyl))bis(pyrrolidin-3-ol)] | > 10000 nM |
| N#Cc1cncc(COc2cc(OCc3cccc(-c4cccc(COc5cc(OCc6cncc(C#N)c6)c(C(=O)N6CCCC(O)C6)cc5Cl)c4Cl)c3Cl)c(Cl)cc2C(=O)N2CCCC(O)C2)c1 (centres unmarked) [Example 80040] | 20.1 to 90 nM |
| Cc1c(COc2cc(OCc3cncc(C#N)c3)c(CN3CCC[C@@H]3C(N)=O)cc2Cl)cccc1-c1cccc(COc2cc(OCc3cncc(C#N)c3)c(CN3CCC[C@@H]3C(N)=O)cc2Cl)c1C [Example 40690] | 90.1 to 1000 nM |
| Cc1c(OCCCNCCc2cccnc2)cccc1-c1cccc(OCCCNCCc2cccnc2)c1C [Example 2086, 3,3′-((2,2′-dimethyl-[1,1′-biphenyl]-3,3′-diyl)bis(oxy))bis(N-(2-(pyridin-3-yl)ethyl)propan-1-amine)] | 0.04 to 20 nM |
| Cc1cc(OCc2cccc(-c3cccc(COc4cc(C)c(CN5CCCC[C@H]5C(=O)O)cc4C)c3C)c2C)c(C)cc1CN1CCCC[C@H]1C(=O)O [Example 5002, (2S,2′S)-1,1′-(((((2,2′-dimethyl-[1,1′-biphenyl]-3,3′-diyl)bis(methylene))bis(oxy))bis(2,5-dimethyl-4,1-phenylene))bis(methylene))bis(piperidine-2-carboxylic acid)] | 20.1 to 90 nM |
| N#Cc1cncc(COc2cc(OCc3cccc(-c4cccc(COc5cc(OCc6cncc(C#N)c6)c(C(=O)N6CCSCC6)cc5Cl)c4Cl)c3Cl)c(Cl)cc2C(=O)N2CCSCC2)c1 [Example 80220] | 1000 to 10000 nM |
| Cc1c(OCCCN2CCCC(C(N)=O)C2)cccc1-c1cccc(OCCCN2CC[C@@H](O)C2)c1C (stereo partly drawn) [Example 2019, 1-(3-((3′-(3-((R)-3-hydroxypyrrolidin-1-yl)propoxy)-2,2′-dimethyl-[1,1′-biphenyl]-3-yl)oxy)propyl)piperidine-3-carboxamide] | 0.04 to 20 nM |
| Cc1c(OCCCN[C@@H](CO)c2ccccc2)cccc1-c1cccc(OCCCN2CC[C@@H](O)C2)c1C [Example 2069, (R)-1-(3-((3′-(3-(((R)-2-hydroxy-1-phenylethyl)amino)propoxy)-2,2′-dimethyl-[1,1′-biphenyl]-3-yl)oxy)propyl)pyrrolidin-3-ol] | 90.1 to 1000 nM |
| Cc1c(OCCCN2CC[C@@H](O)C2)cccc1-c1ccc2c(c1)OC(CCN1CC[C@@H](O)C1)CO2 (single isomer, unassigned) [Example 3030] | 0.04 to 20 nM |
| N#Cc1cncc(COc2cc(OCc3cccc(-c4cccc(COc5cc(OCc6cncc(C#N)c6)c(C(=O)NC6COC6)cc5Cl)c4Cl)c3Cl)c(Cl)cc2C(=O)NC2COC2)c1 [Example 80180] | 1000 to 10000 nM |
| Cc1c(COc2cc(OCc3cncc(C#N)c3)c(CN[C@H](C(=O)O)[C@@H](C)O)cc2Cl)cccc1-c1cccc(COc2cc(OCc3cncc(C#N)c3)c(CN[C@H](C(=O)O)[C@@H](C)O)cc2Cl)c1C [Example 41100] | 0.04 to 20 nM |
| COC(=O)[C@H](NCc1cc(Cl)c(OCc2cccc(-c3cccc(COc4cc(OCc5cncc(C#N)c5)c(CN[C@H](C(=O)O)C(=O)OC)cc4Cl)c3C)c2C)cc1OCc1cncc(C#N)c1)C(=O)O [Example 40910] | 1000 to 10000 nM |
| Cc1c(OCCCNC[C@H](O)CO)cccc1-c1cccc(OCCCN[C@H](CO)[C@H](O)c2ccccc2)c1C [Example 2098, (S)-3-((3-((3′-(3-(((1R,2R)-1,3-dihydroxy-1-phenylpropan-2-yl)amino)propoxy)-2,2′-dimethyl-[1,1′-biphenyl]-3-yl)oxy)propyl)amino)propane-1,2-diol] | 0.04 to 20 nM |
| O[C@@H]1CCN(CCC2COc3ccc(-c4ccc5c(c4)OC(CCN4CC[C@@H](O)C4)CO5)cc3O2)C1 (stereo partly drawn) [Example 3032, (3R,3′R)-1,1′-((2,2′,3,3′-tetrahydro-[6,6′-bibenzo[b][1,4]dioxine]-3,3′-diyl)bis(ethane-2,1-diyl))bis(pyrrolidin-3-ol)] | 20.1 to 90 nM |
| Cc1c(OCCCNC2CCN(CCO)CC2)cccc1-c1cccc(OCCCN2CC[C@@H](O)C2)c1C [Example 2067, (R)-1-(3-((3′-(3-((1-(2-hydroxyethyl)piperidin-4-yl)amino)propoxy)-2,2′-dimethyl-[1,1′-biphenyl]-3-yl)oxy)propyl)pyrrolidin-3-ol] | 20.1 to 90 nM |
| Cc1c(COc2cc(O)c(CN[C@@](C)(CO)C(=O)O)cc2Cl)cccc1-c1cccc(COc2cc(O)c(CN[C@@](C)(CO)C(=O)O)cc2Cl)c1C [Example 40160] | 0.04 to 20 nM |
| Cc1c(OCCCNCCc2cccnc2)cccc1-c1cccc(OCCCN2CC[C@@H](O)C2)c1C [Example 2022, (R)-1-(3-((2,2′-dimethyl-3′-(3-((2-(pyridin-3-yl)ethyl)amino)propoxy)-[1,1′-biphenyl]-3-yl)oxy)propyl)pyrrolidin-3-ol] | 0.04 to 20 nM |
| Cc1c(OCCCN(C)CCCO)cccc1-c1cccc(OCCCN(C)CCCO)c1C [Example 2030, 3,3′-((((2,2′-dimethyl-[1,1′-biphenyl]-3,3′-diyl)bis(oxy))bis(propane-3,1-diyl))bis(methylazanediyl))bis(propan-1-ol)] | 0.04 to 20 nM |
| Cc1c(OCCCNC[C@@H](O)c2ccccc2)cccc1-c1cccc(OCCCN2CC[C@@H](O)C2)c1C [Example 2113, (R)-1-(3-((3′-(3-(((S)-2-hydroxy-2-phenylethyl)amino)propoxy)-2,2′-dimethyl-[1,1′-biphenyl]-3-yl)oxy)propyl)pyrrolidin-3-ol] | 20.1 to 90 nM |
| Cc1c(OCCCN2CC[C@@H](O)C2)cccc1-c1cccc(OCCCN2CC[C@@H](O)C2)c1 [Example 3023, (3R,3′R)-1,1′-(((2-methyl-[1,1′-biphenyl]-3,3′-diyl)bis(oxy))bis(propane-3,1-diyl))bis(pyrrolidin-3-ol)] | 90.1 to 1000 nM |
| Cc1cc(OCc2cccc(-c3cccc(COc4cc(OCc5cncc(C#N)c5)c(CN[C@@](C)(CO)C(=O)O)cc4Cl)c3C)c2C)c(Cl)cc1CN[C@@](C)(CO)C(=O)O [Example 5507, (S)-2-((4-((3′-((4-((((S)-2-carboxy-1-hydroxypropan-2-yl)amino)methyl)-2-chloro-5-((5-cyanopyridin-3-yl)methoxy)phenoxy)methyl)-2,2′-dimethyl-[1,1′-biphenyl]-3-yl)methoxy)-5-chloro-2-methylbenzyl)amino)-3-hydroxy-2-methylpropanoic acid] | 0.04 to 20 nM |
| Cc1c(OCCCNC[C@@H](O)c2ccc(F)c(Cl)c2)cccc1-c1cccc(OCCCN2CC[C@@H](O)C2)c1C [Example 2075, (R)-1-(3-((3′-(3-(((S)-2-(3-chloro-4-fluorophenyl)-2-hydroxyethyl)amino)propoxy)-2,2′-dimethyl-[1,1′-biphenyl]-3-yl)oxy)propyl)pyrrolidin-3-ol] | 20.1 to 90 nM |

Same assay, conditions: numeric IC50; PD-L1-His 10 nM, PD-1-Ig 20 nM; read-out: Range or IC50

| Structure (SMILES) | IC50 |
| --- | --- |
| Cc1c(OCCCN2CC[C@@H](O)C2)cccc1-c1cccc(OCCCN2CC[C@@H](O)C2)c1Cl [Example 3024, (3R,3′R)-1,1′-(((2-chloro-2′-methyl-[1,1′-biphenyl]-3,3′-diyl)bis(oxy))bis(propane-3,1-diyl))bis(pyrrolidin-3-ol)] | 12 nM |

Reference: patent US10144706B2 (BRISTOL-MYERS SQUIBB COMPANY, priority 2016, dated 2018)
